Series [1] relates to polychromatic erythrocytes of rat bone marrow. The settings on record: in vivo; cited from earlier work.
In series [2] the test system is rat liver. Nature of the series: Non-protein-bound sulfhydryl groups (NPSH) in liver homogenate supernatant. In kind it is in vivo. The settings on record: for NPSH, individual animal / NPSH, group (mean ± SD): rat liver; for NPSH, group (mean ± SD): n = 6. Here is the method:
Determination of NPSH was performed according to the principle described by Ellmann (1958, 1959) in the liver homogenate supernatant fraction of the NVP-exposed male Wistar rats. […] The supernatant fraction was stored in aliqots at − 80 °C. Prior to assay, the samples were diluted fourfold and to 100 µL of the diluted sample 200 µL Tris/EDTA (1 M/5 mM, pH 8.9) buffer was added. Determinations were performed in triplicates. […] Measurements were performed 5 min thereafter at λ = 412 nm.

The test system of series [3] is CYP4A. Nature of the series: Lauric acid hydroxylase assay, 12-hydroxylation (PPARα marker). It counts as in vivo, rat. How it is done: (§1) ^14C-labelled lauric acid (55 mCi/mmol) dissolved in ethanol (0.1 mCi/mL; total volume 2.5 mL) was purchased from American Radiolabeled Chemicals. 10 µL of this solution were diluted with methanol to 2 mL. The purity was checked by radio-HPLC. For the enzyme activity determinations 1.21 mL of this solution were treated in the thermomixer at 40 °C and 300 rpm until the ethanol was completely evaporated. The residue was taken up in 550 µL DMSO and checked on the incubation days by radio-HPLC and by liquid scintillation counting (LSC). To this end the just-mentioned solution in DMSO (nominally 8.14 MBq/mL) was 100-fold diluted with methanol, 50 µL of the resultant solution used for the HPLC analysis, 100 µL for the LSC analysis (488,400 dpm/100 µL).
For the determination of the lauric acid hydroxylase activity the liver microsomal fractions (prepared as described in the preceding chapter “Aryl hydrocarbon receptor”) derived from the NVP-treated (and untreated control) male rats were adjusted with TrisHCl pH 7.5–20 mg protein/mL. Obtained samples were measured in duplicates. Controls were heat-denatured samples (15 min at 99 °C in the thermomixer at 450 rpm), zero-time samples (reaction stopped immediately after adding substrate) and buffer controls (TrisHCl pH 7.5, no microsomal protein). 155 µL master mix (100 mM TrisHCl pH 7.5, 10 mM MgCl2, 2 mM 5’AMP-Na2, 5 mM G-6-P, 10 U G-6-P-DH) and 30 µL sample were preincubated for 3 min at 37 °C. Subsequently 10 µL of a 2-mM NADPH solution and 5 µL ^14C-lauric acid (8.14 MBq/mL) were added (lauric acid final concentration in the incubation 100 µM). The reaction was run for 20 min at 37 °C in the thermomixer (450 rpm) and stopped by the addition of 200 µL ice-cold acetone. […]

Series [4] deals with CYP2E1. Nature of the series: Lauric acid hydroxylase assay, 11-hydroxylation. In kind it is in vivo, rat. How it is done:
as §1
For the determination of the lauric acid hydroxylase activity the liver microsomal fractions (prepared as described in the preceding chapter “Aryl hydrocarbon receptor”) derived from the NVP-treated (and untreated control) male rats were adjusted with TrisHCl pH 7.5–20 mg protein/mL. Obtained samples were measured in duplicates. Controls were heat-denatured samples (15 min at 99 °C in the thermomixer at 450 rpm), zero-time samples (reaction stopped immediately after adding substrate) and buffer controls (TrisHCl pH 7.5, no microsomal protein). 155 µL master mix (100 mM TrisHCl pH 7.5, 10 mM MgCl2, 2 mM 5’AMP-Na2, 5 mM G-6-P, 10 U G-6-P-DH) and 30 µL sample were preincubated for 3 min at 37 °C. Subsequently 10 µL of a 2-mM NADPH solution and 5 µL ^14C-lauric acid (8.14 MBq/mL) were added (lauric acid final concentration in the incubation 100 µM). The reaction was run for 20 min at 37 °C in the thermomixer (450 rpm) and stopped by the addition of 200 µL ice-cold acetone. Proteins were sedimented by centrifugation (6000 g, 10 min, 4 °C) and the supernatant used for the analysis by HPLC (system: Agilent 1260 infinity, column: EC250/4 Nucleosil, 120–5 C18, radio detector: Berthold FlowStar LB 513) under the following conditions: Injection volume 50 µL; eluent A: Methanol/acetic acid/water (600/5/400 mL), eluent B: Methanol; gradient: 0–10 min 100% eluent A, 10–20 min 0–100% eluent B, 20–30 min 100% eluent B, 30–40 min 100% eluent A; flow rate: 0.8 mL/min. In order to ascertain the assignment of the peaks to 11-hydroxylauric acid versus 12-hydroxylauric acid the retention times and mass spectra (HPLC-QTOF/MS) of a 12-hydroxylauric acid standard were compared with the lauric acid incubates (parameters of the HPLC-QTOF/MS system: (U)HPLC: Agilent 1200 und 1290; MS instrument: MS324/Agilent/S/N US10318001; radio detector: Raytest/Mirastar Masshunter Data Acquisition B.06.01; ionisation mode: ESI, negative mode).

Series [5] deals with rat liver. Nature of the series: Liver histology, Oil Red O staining. To be noted: high dose group (20 ppm). In kind it is in vivo. Here is the method:
ORO staining was performed essentially according to Lillie and Ashburn ([1943]), specifically under the following conditions:
Parts of the frozen (− 80 °C) livers from rats treated with 0, 5, 10 or 20 ppm NVP were soaked in tap water and then thoroughly frozen at − 40 °C. Subsequently they were cut at -10 to -15 °C into slices of 12–20 µm and stored in water until starting the staining procedure. The slices were then left for approximately 5 min in 60% isopropanol, subsequently stained for 10–12 min in ORO solution (5 g ORO dissolved in 1 L isopropanol, to this solution added 400 mL H2O, left at room temperature for 24 h and then filtered) and subsequently differentiated by immersing 2–3 times into 60% isopropanol. Afterwards they were left in water until they collected at the surface. Finally the slices were stained for 3 min in hematoxylin solution (1 g hematoxylin, 50 g KAl(SO4)2, 50 g chloral hydrate, 1 g citric acid/L H2O, then for maturation 0.2 g NaIO3/L). Subsequently they were left at least 10 min in water. Finally, the slices were transferred to microscope slides and covered with 40–60 °C warm Kaiser’s glycerol gelatin.

Series [6] relates to rats. More on the design: method as in Klimisch et al. [1997b]. The settings on record: ref Klimisch et al. [1997b], cited from earlier work.
Series [7] concerns BALB/3T3 cells. More on the design: method as in MAK [1994]. To be noted: ref MAK [1994]; cited from earlier work.
Series [8] concerns rat hepatocytes. More on the design: method as in MAK [1994]. To be noted: ref MAK [1994]; cited from earlier work.
The test system of series [9] is Salmonella strains. The settings on record: three independent tests in four Salmonella strains; ref MAK [1994]; cited from earlier work.
For series [10], the system named is Drosophila melanogaster. The settings on record: ref Knaap et al. [1985]; cited from earlier work.
Series [11] has as its system rat liver cells. The settings on record: rats, ref BASF [2011], cited from earlier work.
[12] abbreviates: lauric acid 12-hydroxylation, liver microsomes, 20 ppm NVP, individual animals 19-24.
The mark [13] stands for this setting: lauric acid 11-hydroxylation, liver microsomes, 20 ppm NVP, individual animals 19-24.

Several values for one entry are separate records, joined by “and”; a condition that tells them apart may be missing. Equal entries are not always repeated. A value given as a limit tells only on which side of the number the result lay.

Turning to `CCOS(C)(=O)=O` [EMS, ethyl methanesulfonate, reference compound], the “Micronuclei in PCE, historical positive controls” value in series [1] is recorded as 6.1–21.9 ‰.
Consider `C=CN1CCCC1=O` [NVP, N-vinylpyrrolidone], for which the “GSH concentration (NPSH assay), range” value in series [2] (NVP-exposed male rats, 5-20 ppm) was 3.72–5.23 µmol/g liver. In addition, the “NPSH, individual animal” value in series [2] (5 ppm NVP inhalation, animals 7-12) is 5,13 µmol/g liver and 4,59 µmol/g liver and 4,10 µmol/g liver and 4,86 µmol/g liver and 3,99 µmol/g liver. Also, the “NPSH, group (mean ± SD)” value in [2] (5 ppm NVP inhalation) is recorded as 4.42 ± 0.52 µmol/g liver. The “NPSH, individual animal” value in series [2] (10 ppm NVP inhalation, animals 13-18) was 4.11 µmol/g liver and 4.72 µmol/g liver and 4.83 µmol/g liver and 4.57 µmol/g liver and 3.76 µmol/g liver. The “NPSH, group (mean ± SD)” value in series [2] (10 ppm NVP inhalation) came out at 4.23 ± 0.58 µmol/g liver. Further, the “NPSH, individual animal” value in series [2] (20 ppm NVP inhalation, animals 19-24) was 4.47 µmol/g liver and 5.23 µmol/g liver and 3.72 µmol/g liver and 3.88 µmol/g liver and 4.67 µmol/g liver and 4.64 µmol/g liver. The “NPSH, group (mean ± SD)” value in [2] (20 ppm NVP inhalation) stood at 4.44 ± 0.55 µmol/g liver. In addition, in [3] (20 ppm, not statistically significant), the “Increase of lauric acid 12-hydroxylation vs vehicle control” value was determined as 1.3 fold. Also, in series [3] (setting [12]), the “ω-hydroxylase (CYP4A-activity), enzyme activity individual” value was 20,495 peak surface/min/mg protein and 20,593 peak surface/min/mg protein and 10,543 peak surface/min/mg protein and 14,545 peak surface/min/mg protein and 15,406 peak surface/min/mg protein and 6779 peak surface/min/mg protein; the “ω-hydroxylase (CYP4A-activity), peak surface” value was 27,314 and 28,341 and 15,814 and 21,818 and 23,109 and 11,088. In addition, in series [4] (20 ppm, male rat liver microsomes), the “Lauric acid 11-hydroxylation activity” value was found to be 5149 ± 2010 peak area/min/mg protein. In series [4] (20 ppm, statistically not significant), the “Increase of lauric acid 11-hydroxylation vs vehicle control” value was 1.1 fold. Also, in series [4] (setting [13]), the “ω-1-hydroxylase (CYP2E1-activity), enzyme activity individual” value is 7458 peak surface/min/mg protein and 7295 peak surface/min/mg protein and 3522 peak surface/min/mg protein and 5008 peak surface/min/mg protein and 5216 peak surface/min/mg protein and 2393 peak surface/min/mg protein; the “ω-1-hydroxylase (CYP2E1-activity), peak surface” value was 9940 and 10,040 and 5283 and 7513 and 7824 and 3996. Further, the “ω-1-hydroxylase (CYP2E1-activity), enzyme activity group (mean ± SD)” value in series [4] (lauric acid 11-hydroxylation, liver microsomes, 20 ppm NVP, vehicle 4512 ± 1050) is on record as 5149 ± 2010 peak surface/min/mg protein. In series [5], the “Lipid-staining (oil red O) of centrilobular hepatocellular fatty change” value was “positive for only one male and one female animal”. Moreover, the “Change of total non-protein-bound sulfhydryls” value in [6] (Sprague–Dawley rats, inhalation 3 months, 10 ppm) is listed as “increase”. In [6] (rats, inhalation), the “Concentration at which erythrocytes, hematocrit and hemoglobin were reduced” value is given as 15 ppm; the “Concentration with foci of altered hepatocytes” value was 5 ppm; the “LOAEC, liver (increased gamma-glutamyl transpeptidase and glutathione)” value is given as 5 ppm; the “LOAEC, nasal mucosa (inflammation, olfactory epithelium atrophy, basal cell hyperplasia)” value is 5 ppm. Further, the “Dose with necrosis of single centrilobular liver cells” value in series [6] (subchronic studies in rats and mice) is 45 ppm. In [7], the “BALB/3T3 cell transformation test result” value was “negative”. Also, the “Unscheduled DNA Synthesis (UDS) test result” value in [8] is “negative”. Also, the “Ames Salmonella back mutation test result” value in [9] is “negative”. Further, the “Sex-linked recessive lethal test result” value in [10] is recorded as “negative”. Moreover, in [11] (inhalation for 7 days), the “Concentration from which liver cell proliferation is significantly increased” value is on record as no less than 1 ppm. Further, the “Concentration giving a significant increase of liver cell proliferation (zones 3 and 2)” value in series [11] (inhalation for 28 days) was 0.5 ppm.

The values above are taken from paper PMC8536644, “Enigmatic mechanism of the N-vinylpyrrolidone hepatocarcinogenicity in the rat” (Archives of Toxicology, 2021).
